Experimental data reported in ChEMBL document CHEMBL3243945, “Antiinflammatory activity of isomeric phenylnaphthaleneacetic acids” (J Med Chem, 1977).

Legend:
[1] = Dissociation constant, pKa of the compound in DMF-H2O (6.7% v/v) by titration method; format: physicochemical
Cavia porcellus = assay: Antiinflammatory activity in depilated albino guinea pig assessed as suppression of UV radiation-induced skin erythema compound administered via gavage measured 2 hrs after UV irradiation exposure; format: functional; conditions: light or radiation study, po, read-out: MED

Compound	pKa [1]	minimal effective dose (Cavia porcellus) [mg/kg]
O=C(O)Cc1c(-c2ccccc2)ccc2ccccc12	6.9	> 50
O=C(O)Cc1ccc2c(-c3ccccc3)cccc2c1	6.6	3.1
O=C(O)Cc1ccc2ccccc2c1-c1ccccc1	7.2	> 200
O=C(O)Cc1cc(-c2ccccc2)cc2ccccc12	6.7	50
O=C(O)Cc1cccc2cc(-c3ccccc3)ccc12	6.9	25
COc1ccc2c(c1)c(CC(=O)O)c(C)n2C(=O)c1ccc(Cl)cc1 [INDOMETHACIN]		1.7
O=C(O)Cc1ccc(-c2ccccc2)c2ccccc12	6.8	0.1
O=C(O)Cc1cc2ccccc2cc1-c1ccccc1	7.1	> 200
O=C(O)Cc1ccc2ccc(-c3ccccc3)cc2c1	6.7	> 50
Cc1ccc(Cl)c(Nc2ccccc2C(=O)O)c1Cl [MECLOFENAMIC ACID]		0.4
O=C(O)Cc1ccc2cc(-c3ccccc3)ccc2c1	6.6	3.1
O=C(O)Cc1cc(-c2ccccc2)c2ccccc2c1	7	100
O=C(O)Cc1cccc2c(-c3ccccc3)cccc12	6.7	0.1
O=C(O)Cc1ccc2cccc(-c3ccccc3)c2c1	6.8	> 100
O=C(O)Cc1cccc2ccc(-c3ccccc3)cc12	6.9	100
CCCCC1C(=O)N(c2ccccc2)N(c2ccccc2)C1=O [PHENYLBUTAZONE]		5.3
